Values quoted from earlier work as cited in patent US20050101629A1, “Compositions of a chromene cyclooxygenase-2 selective inhibitor and a cholinergic agent for the treatment of reduced blood flow or trauma to the central nervous system” (Pharmacia Corporation, priority 2003, published 2005).

Details: administered to subjects following stroke; Adibhatla et al. (2002) J. Neurochem. 80:12-23

## C[N+](C)(C)CCOP(=O)(O)OP(=O)(O)OC[C@H]1O[C@@H](n2ccc(N)nc2=O)[C@H](O)[C@@H]1O [citicoline]
  behavioral parameters: improvement in behavioral parameters
  infarction volume: decrease in infarction volume
